Results reported in US20260258009A1, “3-[(BENZO[D][1,3]DIOXOLANE-4-YL)OXY]PROPYLAMINE HYDROCHLORIDE, OPTICAL ISOMER AND CRYSTAL THEREOF, AND PREPARATION METHOD THEREFOR” (priority 2022, published 2026).
Counter-ions that a name gives are not always drawn. Like-named read-outs stand apart in the source and are kept apart here.

Tests used:
[1] = Experiments of influencing factors (crystal form stability, XRPD); format: physicochemical; settings: hydrochloride; for Crystal form after High temperature of 60° C. / Crystal form after Illumination of 5000 1x / Crystal form after High humidity of 92.5%: XRPD; for Crystal form stability (experimental conclusion): high temperature, high humidity, illumination, condition stated in the value; for Crystal form after Illumination of 5000 1x: photostability tester 5000 lx; for Crystal form after High humidity of 92.5%: relative humidity 92.5%
Description: High temperature experiment: About 1 g of the A, B, and C crystal forms were respectively weighed, placed in a clean watch glass, and placed at 60° C. for 10 days. The samples were taken on day 0, day 5, day 10, and day 30 for XRPD analysis.
High humidity experiment: About 1 g of the A, B, and C crystal form samples were respectively weighed, placed in a clean watch glass, and placed at a relative humidity of 92.5% for 10 days. The samples were taken on day 0, day 5, day 10, and day 30 for XRPD analysis.
Illumination experiment: About 1 g of the A, B, and C crystal form samples were respectively weighed, placed in a clean watch glass, laid flat, and placed in a photostability tester (the illumination was 5000 lx) for 10 days. The samples were taken on day 0, day 5, day 10, and day 30 for XRPD analysis.

[2] = Solubility experiment (HPLC, external standard method); format: physicochemical
Description: The concentrated solution was placed in a 20° C. water bath thermostatic oscillator for overnight oscillation (supersaturation) and filtered. The filtrate was taken, 1 mL of which was precisely measured and placed in a 100 mL volumetric flask. A diluent (water) was added, the mixture was diluted to volume and mixed well, 1 mL of which was precisely measured and placed in a 10 mL volumetric flask. A diluent was added, the mixture was diluted to volume and mixed well as a test sample solution.
Control substance solution: A proper amount of 5 samples were respectively taken, precisely measured, dissolved in a proper amount of a diluent by ultrasonication, and diluted to give a solution containing about 0.1 mg of the sample per 1 mL. Two duplicate samples were prepared for each batch.
• (1) Preparation of buffer: About 2.6428 g ammonium sulfate was weighed and dissolved in 1000 mL of water. 2 mL of triethylamine was added, and the pH value was adjusted to 4.0 with dilute sulfuric acid. • (2) Preparation of mobile phase: Methanol-0.02 mol/L ammonium sulfate solution (2 mL triethylamine was added per 1000 mL, and the pH value was adjusted to 4.0 with dilute sulfuric acid) (45:55). 1000 mL was prepared, mixed well, filtered, and used after ultrasonic treatment.
Detection wavelength: 230 nm; flow rate: 1.0 mL/min; column temperature: 35° C.; sample injection volume: 20 μL; chromatographic column: Agilent Eclipse XDB-C18 chromatographic column (4.6×150 mm, 5 μm); mobile phase: methanol-0.02 mol/L ammonium sulfate solution (2 mL triethylamine was added per 1000 mL, and the pH value was adjusted to 4.0 with dilute sulfuric acid) (45:55).
20 μL of each solution was precisely measured, and injected separately into a liquid chromatograph. The chromatograms were recorded, and the solubility of the compounds was determined according to an external standard method.

ICR mice = experiment: Mouse forced swimming test; format: in vivo; settings: for Immobility time: mice, 1 h after administration, mean±SD, n=12
Description: SPF grade ICR mice were taken. The animals were grouped by weight, 12 animals per group, and the animals were allowed to acclimate for at least 3 days before behavioural test.
The behavioural test was started 1 h after intragastric administration. The mice were placed in a transparent glass cylinder with water (water depth: 15 cm, water temperature: 23-25° C.) and video recorded for 6 min (the background was an LED light panel). At the end of the time, the mice were removed from the water and the next batch of mice was subjected to the behavioural test. Water was changed after every 3 batches of tests. After the test, the video of the behavioural test was derived and the cumulative immobility time of the mice 4 min after the 6 min forced swimming period was analyzed using the Forced Swim Scant 2.0 software.
The test results are expressed as mean±SD. Comparisons between each group and the vehicle group were conducted using the t-test. The differences were considered statistically significant when. P<0.05.

Hygroscopicity test = format: physicochemical; settings: 25° C.±1° C., relative humidity 80%±2%, 24 h; for Hygroscopicity: hydrochloride
Description: 17.1. A dried glass weighing bottle with a plug (outer diameter: 50 mm; height: 15 mm) was taken and placed in a suitable thermostatic dryer (with saturated ammonium chloride or ammonium sulfate solution placed in the lower part) at 25° C.±1° C. or an artificial climate box (with a set temperature at 25° C.±1° C. and relative humidity at 80%±2%) on the day before the test, and the weight (m1) was precisely measured. 17.2. An appropriate amount of the A crystal form of the compound of formula (I) was taken and spread in the above weighing bottle, with the thickness of the test sample being about 1 mm in general, and the weight (m2) was precisely measured. […] The weighing bottle was opened and placed in the above conditions at constant temperature and humidity for 24 h together with the cap. 17.4. The weighing bottle was capped, and the weight (m3) was precisely measured. [formula]

[3] = both, beagle, dog, in vivo
Description: (§1) Each group had six beagle dogs, half male and half female.
(§2) Preparation of solutions: • 1) Intravenous injection administration: 0.9% Normal saline was used as a vehicle. • 2) Oral administration: According to the dose of 10 mg/kg (based on base), a corresponding mass of the drug was weighed according to the actual weight of the animal, and then filled into a capsule to be administered to the animal.

[4] = Pharmacokinetic assay in beagle dogs; settings: both, dog, in vivo, mean; for half-life: t1/2, beagle dogs
Description: as §1, §2

[5] = 5 days, listed as A crystal form
[6] = 10 days, listed as A crystal form
[7] = 30 days, listed as A crystal form
[8] = po, 1 mg/kg, beagle dogs, oral (capsule)

## CNCC[C@@H](Oc1cccc2c1OCO2)c1ccccc1.Cl [B crystal form, (R)—N-methyl-3-phenyl-3-[(benzo[d][1,3]dioxolan-4-yl)oxy]propylamine hydrochloride]
[1]; 5 days
  Crystal form after High temperature of 60° C.: Crystal form A + B
  Crystal form after Illumination of 5000 1x: Crystal form B
  Crystal form after High humidity of 92.5%: Crystal form A + B
[1]; 10 days
  Crystal form after High temperature of 60° C.: Crystal form A + B
  Crystal form after Illumination of 5000 1x: Crystal form B
  Crystal form after High humidity of 92.5%: Crystal form A + B
[1]; 30 days
  Crystal form after High temperature of 60° C.: Crystal form A + B
  Crystal form after Illumination of 5000 1x: Crystal form B
  Crystal form after High humidity of 92.5%: Crystal form A + B
[1]
  Crystal form stability (experimental conclusion): converted into a mixed crystal of the crystal forms A and B under the high temperature and high humidity environment

## CNCC[C@@H](Oc1cccc2c1OCO2)c1ccccc1.O=C(O)C(=O)O [(R)—N-methyl-3-phenyl-3-[(benzo[d][1,3]dioxolan-4-yl)oxy]propylamine oxalate, reference compound]
[2]; thermodynamic from solid, Water, 20° C., overnight oscillation, read-out: Solubility
  solubility: 5100 µg/mL

## CNCC[C@@H](Oc1cccc2c1OCO2)c1ccccc1.Cl [C crystal form, (R)—N-methyl-3-phenyl-3-[(benzo[d][1,3]dioxolan-4-yl)oxy]propylamine hydrochloride]
[1]; 5 days
  Crystal form after High temperature of 60° C.: Crystal form C
  Crystal form after Illumination of 5000 1x: Crystal form C
  Crystal form after High humidity of 92.5%: Crystal form A
[1]; 10 days
  Crystal form after High temperature of 60° C.: Crystal form C
  Crystal form after Illumination of 5000 1x: Crystal form C
  Crystal form after High humidity of 92.5%: Crystal form A
[1]; 30 days
  Crystal form after High temperature of 60° C.: Crystal form C
  Crystal form after Illumination of 5000 1x: Crystal form C
  Crystal form after High humidity of 92.5%: Crystal form A
[1]
  Crystal form stability (experimental conclusion): converted into the A crystal form under the high humidity environment

## CNCC[C@H](Oc1cccc2ccccc12)c1cccs1 [Duloxetine hydrochloride, reference compound]
ICR mice; Mus musculus, po, read-out: ED50 (median effective dose, FST-ED50)
  ED50: 6.93 mg/kg
ICR mice; intragastric, 1.25 mg/kg
  Immobility time: 135.1 ± 49.2 s
ICR mice; intragastric, 2.5 mg/kg
  Immobility time: 154.9 ± 76.0 s
ICR mice; intragastric, 5 mg/kg
  Immobility time: 104.9 ± 51.5 s
ICR mice; intragastric, 20 mg/kg
  Immobility time: 29.9 ± 45.4 s
ICR mice; intragastric, 40 mg/kg
  Immobility time: 10.6 ± 17.3 s
ICR mice; mouse forced swimming, intragastric
  minimum effective dose (MED): 5 mg/kg

## CNCC[C@@H](Oc1cccc2c1OCO2)c1ccccc1.Cl [Crystal form A of compound of formula (I)] [(R)—N-methyl-3-phenyl-3-[(benzo[d][1,3]dioxolan-4-yl)oxy]propylamine hydrochloride]
[1]; [5]
  Crystal form after High temperature of 60° C.: Crystal form A
  Crystal form after Illumination of 5000 1x: Crystal form A
  Crystal form after High humidity of 92.5%: Crystal form A
[1]; [6]
  Crystal form after High temperature of 60° C.: Crystal form A
  Crystal form after Illumination of 5000 1x: Crystal form A
  Crystal form after High humidity of 92.5%: Crystal form A
[1]; [7]
  Crystal form after High temperature of 60° C.: Crystal form A
  Crystal form after Illumination of 5000 1x: Crystal form A
  Crystal form after High humidity of 92.5%: Crystal form A
[1]; listed as A crystal form
  Crystal form stability (experimental conclusion): can keep stable under high temperature, high humidity, and illumination
[2]
  solubility: 35550 µg/mL
Hygroscopicity test
  Weight gain: 0.01%
Hygroscopicity test; listed as A crystal form of the compound of formula (I)
  Hygroscopicity: no or almost no hygroscopicity
Hygroscopicity test; listed as A crystal form
  Hygroscopicity: no or almost no hygroscopicity
[3]; iv, 0.3 mg/kg
  AUC(0-t): 123.7 ng·h/mL
  AUC(0-∞): 124.5 ng·h/mL
  Cmax: 83.6 ng/mL
  Tmax: 0.08 h
  t1/2: 2.08 h
[3]; po
  bioavailability: 28.2%
[3]; po, 1 mg/kg
  AUC(0-t): 116.3 ng·h/mL
  AUC(0-∞): 117.1 ng·h/mL
  Cmax: 35.3 ng/mL
  Tmax: 0.92 h
  t1/2: 2.48 h

## CNCCC(Oc1cccc2c1OCO2)c1ccccc1.O=C(O)C(=O)O (centres unmarked) [N-methyl-3-phenyl-3-[(benzo[d][1,3]dioxolan-4-yl)oxy]propylamine oxalate]
[2]; water, 20 °C, water, thermodynamic from solid, Water, 20° C., overnight oscillation, read-out: Solubility
  solubility: 6900 µg/mL
[4]; iv, 0.3 mg/kg, beagle dogs
  AUC(0-t): 109 ng·h/mL
  AUC(0-inf): 110 ng·h/mL
  Cmax: 71.6 ng/mL
  Tmax: 0.08 h
[4]; iv, 0.3 mg/kg
  half-life: 1.93 h
[4]; [8]
  AUC(0-t): 78.7 ng·h/mL
  AUC(0-inf): 79.9 ng·h/mL
  Cmax: 23.7 ng/mL
  Tmax: 1.43 h
[4]; po, 1 mg/kg, Bioavailability, beagle dogs, oral 1 mg/kg vs intravenous 0.3 mg/kg
  bioavailability: 21.8%
[4]; po, 1 mg/kg, oral (capsule)
  half-life: 1.98 h
